Like-named read-outs stand apart in the source and are kept apart here.
How the values were obtained:
primary rat microglia [1] = assay: Cell toxicity (dead cells, size <150 μm2) in coated fibrin (cFib) assay; details: primary microglia HTS, fibrin assay, dead cells (size <150 μm2);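 further: share of dead cells sized under 150 µm2 at 10 µM in fibrin-stimulated microglia HTS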
primary rat microglia [2] = system: primary rat microglia
[3] = system: fibrin-induced microglia activation; assay: Image-based assay of fibrin-induced microglia activation (HTS and dose response); assay type: cell-based, rat; details: primary microglia HTS, fibrin stimulation, compounds at 10 μM; for inhibition at 10 µM: Rattus norvegicus, Microglia, read-out: Fibrin % inhibition
[4] = system: fibrin- and LPS-induced microglia activation; assay: cells; assay type: cell-based, rat; details: HTS at 10 μM
[5] = system: LPS-induced microglia activation; assay: Image-based assay of LPS-induced microglia activation (HTS and dose response); assay type: cell-based, rat; details: primary microglia HTS, LPS stimulation, compounds at 10 μM; for inhibition at 10 µM: Rattus norvegicus, Microglia, read-out: LPS % inhibition
[6] = quadrant by fibrin and LPS inhibition
[7] = classification by fibrin and LPS inhibition

SMILES | Fibrin % cell toxicity (primary rat microglia [1]) | LPS % cell toxicity (primary rat microglia [2]) | Fibrin % inhibition [3] | Quadrant (FIG. 5b) [4, 6] | LPS % inhibition [5] | LPS % cell toxicity (primary rat microglia [2]; rat) | inhibition at 10 µM [3] | inhibition at 10 µM [5] | Fibrin % cell toxicity (primary rat microglia [1]; compounds at 10 μM) | Quadrant (FIG. 5b) [4, 7]
C[C@H]1C[C@H]2[C@@H]3CCC4=CC(=O)C=C[C@]4(C)[C@@]3(Cl)[C@@H](O)C[C@]2(C)[C@@]1(O)C(=O)CO [Beclomethasone] | 1% | 0% | −8% | Q4 | −3% |  |  |  |  | 
CCCCC(CC)COc1ccc(-c2nc(-c3ccc(OC)cc3)nc(-c3ccc(OCC(CC)CCCC)cc3O)n2)c(O)c1 (centres unmarked) [Bemotrizinol] | 1% | 0% | −23% | Q4 | 16% |  |  |  |  | 
CCOC(=O)[C@H](CCc1ccccc1)N[C@H]1CCc2ccccc2N(CC(=O)O)C1=O [Benazepril] | 1% |  |  | Q4 |  | 1% | 0% | 26% |  | 
NS(=O)(=O)c1cc2c(cc1C(F)(F)F)NC(Cc1ccccc1)NS2(=O)=O (centres unmarked) [Bendrofumethiazide, Bendroflumethiazide] | 1% | 1% | −15% | Q4 | 12% |  |  |  |  | 
CC(Cc1cccc(C(F)(F)F)c1)NCCOC(=O)c1ccccc1 (centres unmarked) [Benfluorex] | 1% |  |  | Q4 |  | 0% | -26% | -3% |  | 
C/C(=C(\CCOP(=O)(O)O)SC(=O)c1ccccc1)N(C=O)Cc1cnc(C)nc1N [Benfotiamine] | 0% |  |  | Q4 |  | 0% | -47% | 18% |  | 
O=C(CNC(=O)c1ccc(Cl)cc1)NO [Benurestat] | 1% | 1% | 6% | Q4 | 22% |  |  |  |  | 
CCc1oc2ccccc2c1C(=O)c1cc(Br)c(O)c(Br)c1 [Benzbromarone] | 0% |  |  | Q4 |  | 1% | 0% | 24% |  | 
CCCCNc1ccc(C(=O)OCCOCCOCCOCCOCCOCCOCCOCCOCCOC)cc1 [Benzonatate] | 1% |  |  | Q4 |  | 0% | 0% | 12% |  | 
O=C(Oc1cccc2cccnc12)c1ccccc1 [Benzoxiquine] | 1% |  |  | Q4 |  | 0% | -2% | 14% |  | 
NS(=O)(=O)c1cc2c(cc1Cl)N=C(CSCc1ccccc1)NS2(=O)=O [Benzthiazide] | 1% |  |  | Q4 |  | 0% | -8% | 7% |  | 
CN1CC(=O)NC1=N [Creatinine] |  |  |  |  |  | 0% | -3% | 10% | 1% | Q4
CC(=O)Oc1c(C)cccc1C(=O)O [Cresopyrine, Cresopirine] |  | 1% | 13% |  | 15% |  |  |  | 1% | Q4
O=C(O)c1cc(=O)c2c(OCC(O)COc3cccc4oc(C(=O)O)cc(=O)c34)cccc2o1 [Cromoglicic acid] |  |  |  |  |  | 0% | -28% | 8% | 0% | Q4
FC(F)(Cl)C(F)(F)Cl [Cryoflurane] |  | 0% | −4% |  | 12% |  |  |  | 1% | Q4
CC1CC(OC(=O)C(O)c2ccccc2)CC(C)(C)C1 (centres unmarked) [Cyclandelate] |  |  |  |  |  | 0% | -57% | 4% | 0% | Q4
CN1CCN(C(c2ccccc2)c2ccccc2)CC1 [Cyclizine] |  |  |  |  |  | 1% | -23% | 34% | 0% | Q4
CN(C)CCOC(=O)C(c1ccccc1)C1(O)CCCC1 (centres unmarked) [Cyclopentolate] |  |  |  |  |  | 0% | -8% | 9% | 1% | Q4
N[C@@H]1CON=C1O [Cycloserine] |  |  |  |  |  | 0% | -4% | 19% | 0% | Q4

SMILES | Fibrin % cell toxicity (primary rat microglia [1]) | LPS % cell toxicity (primary rat microglia [2]) | Fibrin % inhibition [3] | Quadrant (FIG. 5b) [4, 6] | LPS % inhibition [5] | LPS % cell toxicity (primary rat microglia [2]; rat) | inhibition at 10 µM [3] | inhibition at 10 µM [5] | Fibrin % cell toxicity (primary rat microglia [1]; compounds at 10 μM) | Quadrant (FIG. 5b) [4, 7]
Nc1nc(N)nc(NC2CC2)n1 [Cyromazine] |  |  |  |  |  | 0% | -9% | 9% | 1% | Q4
N[C@H](Cc1ccccc1)C(=O)O [D-phenylalanine] |  |  |  |  |  | 0% | 1% | 23% | 1% | Q4
CCCCCCOC(=O)NC(=N)c1ccc(NCc2nc3cc(C(=O)N(CCC(=O)OCC)c4ccccn4)ccc3n2C)cc1 [Dabigatran etexilate] |  |  |  |  |  | 0% | 3% | 9% | 0% | Q4
Nc1ccncc1 [Dalfampridine] |  |  |  |  |  | 0% | 8% | 2% | 2% | Q4
O=C1c2cccc(O)c2C(=O)c2c(O)cccc21 [Dantron, Danthron] |  | 0% | −9% |  | 13% |  |  |  | 0% | Q4
Cc1ccccc1N1CCN(CCc2nnc3n2CCCC3)CC1 [Dapiprazole] |  |  |  |  |  | 0% | -9% | 14% | 1% | Q4
CCCCCCCCCC(=O)N[C@@H](Cc1c[nH]c2ccccc12)C(=O)N[C@@H](CC(N)=O)C(=O)N[C@@H](CC(=O)O)C(=O)N[C@@H]1C(=O)NCC(=O)N[C@@H](CCCN)C(=O)N[C@@H](CC(=O)O)C(=O)N[C@H](C)C(=O)N[C@@H](CC(=O)O)C(=O)NCC(=O)N[C@H](CO)C(=O)N[C@@H]([C@H](C)CC(=O)O)C(=O)N[C@@H](CC(=O)c2ccccc2N)C(=O)O[C@@H]1C [Daptomycin (5 Millimolar/dmso)] |  | 0% | −6% |  | 17% |  |  |  | 1% | Q4
N=C(N)N1CCc2ccccc2C1 [Debrisoquin] |  |  |  |  |  | 0% | 8% | 17% | 1% | Q4
C[N+](C)(C)CCCCCCCCCC[N+](C)(C)C [Decamethonium] |  |  |  |  |  | 0% | 1% | 17% | 0% | Q4
CCCCCCCCCCOc1cc2c(O)c(C(=O)OCC)cnc2cc1OCC [Decoquinate] |  |  |  |  |  | 1% | 7% | 20% | 1% | Q4
CCN(CC)C(=O)c1cccc(C)c1 [Deet, Diethyltoluamide] |  | 0% | −38% |  | 6% |  |  |  | 0% | Q4
CC(=O)N(O)CCCCCNC(=O)CCC(=O)N(O)CCCCCNC(=O)CCC(=O)N(O)CCCCCN [Deferoxamine] |  |  |  |  |  | 0% | 2% | 32% | 1% | Q4
C[C@H](CCC(=O)O)[C@H]1CC[C@H]2[C@@H]3C(=O)C[C@@H]4CC(=O)CC[C@]4(C)[C@H]3CC(=O)[C@]12C [Dehydrocholic Acid] |  |  |  |  |  | 0% | -30% | 7% | 1% | Q4
CC(C)Nc1cccnc1N1CCN(C(=O)c2cc3cc(NS(C)(=O)=O)ccc3[nH]2)CC1 [Delavirdine] |  |  |  |  |  | 1% | -11% | 9% | 1% | Q4
CC[N+](CC)(CC(=O)Nc1c(C)cccc1C)Cc1ccccc1 [Denatonium Benzoate] |  |  |  |  |  | 0% | 2% | 12% | 0% | Q4
Cc1cc(N)c2ccccc2[n+]1CCCCCCCCCC[n+]1c(C)cc(N)c2ccccc21 [Dequadin] |  |  |  |  |  | 0% | -32% | 2% | 0% | Q4
COc1ccc(-c2cc(C(F)F)nn2-c2ccc(S(N)(=O)=O)cc2)cc1F [Deracoxib] |  |  |  |  |  | 0% | -34% | 8% | 0% | Q4
CCN[C@@H](C)Cc1cccc(C(F)(F)F)c1 [Dexfenfluramine] |  |  |  |  |  | 0% | -15% | 5% | 1% | Q4

Source: patent publication US20210330611A1, “THERAPY FOR NEUROLOGICAL DISEASES/DISORDERS” (priority 2020, published 2021)
